Assay results as given in the supplement of paper PMC10307832.

How the values were obtained:
Experiment in all cases: relative viability (nuclei count vs DMSO), 5 days (fraction); higher = more cells survive
Tosedostat + Palbociclib = compound: CC(C)C[C@@H](C(=O)N[C@H](C(=O)OC1CCCC1)c1ccccc1)[C@H](O)C(=O)NO [Tosedostat] + CC(=O)c1c(C)c2cnc(Nc3ccc(N4CCNCC4)cn3)nc2n(C2CCCC2)c1=O [Palbociclib] (partner 0.5 µM)
Method in brief: (§1)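 Cells from lung cancer lines were seeded into 1536-well plates and, one day later, dosed by pin tool. Treatments were either a single drug or a fixed dose of an anchor drug with five library-drug doses (not always all listed) in √10 steps. After 5 days, nuclei were stained in a one-step fixation (final 0.05% Triton X-100, 1% formaldehyde, 1 ug/ml Hoechst) and counted on 4× images, and relative viability is the treated-to-vehicle nuclei ratio, as the median of duplicate plates.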

Tosedostat + Crizotinib = compound: CC(C)C[C@@H](C(=O)N[C@H](C(=O)OC1CCCC1)c1ccccc1)[C@H](O)C(=O)NO [Tosedostat] + C[C@@H](Oc1cc(-c2cnn(C3CCNCC3)c2)cnc1N)c1c(Cl)ccc(F)c1Cl [Crizotinib] (partner 1 µM)
Method in brief: as §1

[1] = compound: CC1=NN=C(O1)C2=NN=C(C=C2)N3CCC(CC3)OC4=C(C=CC(=C4)F)Cl + CC(C)C[C@H](NC(=O)[C@H](Cc1ccccc1)NC(=O)c1cnccn1)B(O)O [Bortezomib] (partner 0.002 µM)
Method in brief: as §1

[2] = compound: CC1=NN=C(O1)C2=NN=C(C=C2)N3CCC(CC3)OC4=C(C=CC(=C4)F)Cl + O=C(CCCCCCC(=O)Nc1ccccc1)NO [Vorinostat] (partner 1 µM)
Method in brief: as §1

| Cell Line | relative viability (Tosedostat + Palbociclib; first compound 0.02 µM) | relative viability (Tosedostat + Palbociclib; first compound 0.06325 µM) | relative viability (Tosedostat + Palbociclib; first compound 0.2 µM) | relative viability (Tosedostat + Palbociclib; first compound 0.6325 µM) | relative viability (Tosedostat + Palbociclib; first compound 2 µM) | relative viability (Tosedostat + Crizotinib; first compound 0.02 µM) | relative viability (Tosedostat + Crizotinib; first compound 0.06325 µM) | relative viability (Tosedostat + Crizotinib; first compound 0.2 µM) | relative viability (Tosedostat + Crizotinib; first compound 0.6325 µM) | relative viability (Tosedostat + Crizotinib; first compound 2 µM) | relative viability ([1]; first compound 0.253 µM) | relative viability ([1]; first compound 0.8 µM) | relative viability ([1]; first compound 2.53 µM) | relative viability ([1]; first compound 8 µM) | relative viability ([2]; first compound 0.253 µM) | relative viability ([2]; first compound 0.8 µM) | relative viability ([2]; first compound 2.53 µM) | relative viability ([2]; first compound 8 µM) |
| --- | --- | --- | --- | --- | --- | --- | --- | --- | --- | --- | --- | --- | --- | --- | --- | --- | --- | --- |
| LXF-289 | 0.653 | 0.608 | 0.612 | 0.665 | 0.625 | 0.838 | 0.703 | 0.821 | 0.76 | 0.799 | 0.682 | 0.674 | 0.753 | 0.619 | 0.637 | 0.418 | 0.586 | 0.463 |
| NCI-H23 | 0.509 | 0.494 | 0.521 | 0.37 | 0.428 | 0.504 | 0.494 | 0.442 | 0.341 | 0.206 | 0.948 |  | 0.894 | 0.838 | 0.565 | 0.359 | 0.558 | 0.514 |
| NCI-H322M | 0.466 | 0.473 | 0.459 | 0.524 | 0.455 | 0.877 | 0.957 | 0.841 | 0.868 | 0.71 | 1.05 | 1.05 | 1.21 | 1.11 | 0.812 | 0.87 | 0.948 | 0.799 |
| NCI-H441 | 0.188 | 0.258 | 0.242 | 0.23 | 0.186 | 0.648 | 0.761 | 0.496 | 0.335 | 0.401 | 0.294 | 0.362 | 0.305 | 0.234 | 0.424 | 0.384 | 0.302 | 0.382 |
| NCI-H460 | 0.192 | 0.203 | 0.11 | 0.146 | 0.128 | 0.956 | 0.787 | 0.905 | 0.708 | 0.932 | 0.382 | 0.358 | 0.342 | 0.315 | 0.16 | 0.215 | 0.208 | 0.19 |
| NCI-H520 | 0.245 | 0.236 | 0.239 | 0.303 | 0.315 | 0.692 | 0.754 | 0.787 | 0.833 | 0.846 | 0.378 | 0.5 | 0.518 | 0.542 | 0.561 | 0.712 | 0.569 | 0.613 |
| NCI-H647 | 0.401 | 0.344 | 0.388 | 0.427 | 0.502 | 1.25 | 1.04 | 0.831 | 0.957 | 0.869 | 0.539 | 0.742 | 0.786 | 0.606 | 0.204 | 0.136 | 0.0766 | 0.0534 |
| NCI-H650 | 0.31 | 0.342 | 0.291 | 0.35 | 0.295 | 0.786 | 0.662 | 0.596 | 0.551 | 0.375 | 0.787 | 0.546 | 0.716 | 0.555 | 0.451 | 0.248 | 0.294 | 0.329 |
| NCI-H661 | 0.428 | 0.432 | 0.491 | 0.507 | 0.493 | 0.929 | 0.93 | 1.12 | 1.04 | 1.04 | 0.695 | 0.539 | 0.801 | 0.669 | 0.802 | 0.745 | 0.702 | 0.629 |
| NCI-H727 | 0.715 | 0.637 | 0.617 | 0.645 | 0.597 | 0.983 | 0.784 | 0.658 | 0.557 | 0.513 | 0.528 | 0.702 | 1 | 0.696 | 1.16 | 1.02 | 1.38 | 1.22 |
| NCI-H838 | 0.243 | 0.219 | 0.216 | 0.261 | 0.256 | 0.969 | 0.92 | 0.826 | 0.818 | 0.948 | 0.697 | 0.592 | 0.553 | 0.645 | 0.583 | 0.599 | 0.607 | 0.623 |
| NCI-H1355 | 0.351 | 0.399 | 0.384 | 0.403 | 0.374 | 0.997 | 1.09 | 1.06 | 0.976 | 0.813 |  |  | 1.1 | 0.945 | 0.405 | 0.478 | 0.625 | 0.558 |
| NCI-H1437 | 0.355 | 0.32 | 0.357 | 0.353 | 0.38 | 0.941 | 0.988 | 1.03 | 0.914 | 0.895 | 0.31 | 0.342 | 0.424 | 0.342 | 0.492 | 0.491 | 0.523 | 0.376 |
| NCI-H1650 | 0.352 | 0.39 | 0.376 | 0.417 | 0.504 | 0.988 | 0.937 | 1.07 | 0.86 | 1.01 |  | 0.202 | 0.17 | 0.197 | 0.323 | 0.289 | 0.37 | 0.333 |
| NCI-H1651 | 0.528 | 0.525 | 0.511 | 0.553 | 0.535 | 0.918 | 0.851 | 0.878 | 0.897 | 0.817 | 0.782 | 0.708 | 0.649 | 0.686 | 0.431 | 0.241 | 0.389 | 0.336 |
| NCI-H1666 | 0.589 | 0.696 | 0.61 | 0.601 | 0.657 | 0.972 | 1.01 | 1.01 | 0.937 | 1.11 | 0.419 | 0.851 | 0.756 | 0.57 | 0.735 | 0.862 | 0.868 | 0.864 |
| NCI-H1734 | 0.367 | 0.372 | 0.354 | 0.313 | 0.265 | 0.727 | 0.695 | 0.688 | 0.574 | 0.656 | 0.65 | 0.592 | 0.824 | 0.805 | 0.721 | 0.692 | 0.721 | 0.737 |
| NCI-H1755 | 0.472 | 0.47 | 0.465 | 0.503 | 0.423 | 0.933 | 0.846 | 0.876 | 0.856 | 0.771 | 0.493 | 0.625 | 0.73 | 0.628 | 0.538 | 0.553 | 0.611 | 0.538 |
